In ChEMBL document CHEMBL1141148, “Antidiabetic activity of passive nonsteroidal glucocorticoid receptor modulators” (J Med Chem, 2005):
pIC50: −log10 of the molar value.

How the values were obtained:
Progesterone receptor = target: T1, Progesterone receptor (Homo sapiens, UniProt P06401); assay: Inhibition of human progesterone receptor
T1 sequence (P06401 whole entry): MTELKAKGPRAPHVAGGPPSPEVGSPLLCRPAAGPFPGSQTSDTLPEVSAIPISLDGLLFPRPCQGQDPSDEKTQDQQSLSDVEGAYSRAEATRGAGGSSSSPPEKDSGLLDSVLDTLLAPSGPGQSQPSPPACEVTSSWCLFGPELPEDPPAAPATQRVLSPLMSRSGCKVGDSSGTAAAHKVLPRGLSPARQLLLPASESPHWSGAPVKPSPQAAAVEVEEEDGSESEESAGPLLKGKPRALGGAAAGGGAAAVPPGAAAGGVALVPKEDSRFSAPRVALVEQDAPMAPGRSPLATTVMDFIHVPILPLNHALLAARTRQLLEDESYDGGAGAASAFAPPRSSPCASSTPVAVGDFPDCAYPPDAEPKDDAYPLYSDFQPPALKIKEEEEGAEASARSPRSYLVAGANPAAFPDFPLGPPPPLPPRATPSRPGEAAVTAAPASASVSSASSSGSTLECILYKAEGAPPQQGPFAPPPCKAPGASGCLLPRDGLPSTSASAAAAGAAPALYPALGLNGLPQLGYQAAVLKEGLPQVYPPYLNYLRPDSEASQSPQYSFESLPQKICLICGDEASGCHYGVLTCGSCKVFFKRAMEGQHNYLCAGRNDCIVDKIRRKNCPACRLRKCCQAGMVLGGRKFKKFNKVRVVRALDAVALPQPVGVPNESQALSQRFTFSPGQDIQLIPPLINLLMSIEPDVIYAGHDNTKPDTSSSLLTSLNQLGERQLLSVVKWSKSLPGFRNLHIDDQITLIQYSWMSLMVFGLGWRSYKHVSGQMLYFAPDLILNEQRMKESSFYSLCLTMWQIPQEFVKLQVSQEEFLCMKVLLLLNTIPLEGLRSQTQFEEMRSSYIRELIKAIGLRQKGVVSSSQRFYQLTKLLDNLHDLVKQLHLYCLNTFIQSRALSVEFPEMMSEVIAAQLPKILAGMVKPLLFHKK

Glucocorticoid receptor [1] = target: T2, Glucocorticoid receptor (Homo sapiens, UniProt P04150); assay: Antagonistic activity against 5 nM Dexamethasone induced glucocorticoid receptor mediated alkaline phosphatase activity; type: functional
T2 sequence (P04150 whole entry): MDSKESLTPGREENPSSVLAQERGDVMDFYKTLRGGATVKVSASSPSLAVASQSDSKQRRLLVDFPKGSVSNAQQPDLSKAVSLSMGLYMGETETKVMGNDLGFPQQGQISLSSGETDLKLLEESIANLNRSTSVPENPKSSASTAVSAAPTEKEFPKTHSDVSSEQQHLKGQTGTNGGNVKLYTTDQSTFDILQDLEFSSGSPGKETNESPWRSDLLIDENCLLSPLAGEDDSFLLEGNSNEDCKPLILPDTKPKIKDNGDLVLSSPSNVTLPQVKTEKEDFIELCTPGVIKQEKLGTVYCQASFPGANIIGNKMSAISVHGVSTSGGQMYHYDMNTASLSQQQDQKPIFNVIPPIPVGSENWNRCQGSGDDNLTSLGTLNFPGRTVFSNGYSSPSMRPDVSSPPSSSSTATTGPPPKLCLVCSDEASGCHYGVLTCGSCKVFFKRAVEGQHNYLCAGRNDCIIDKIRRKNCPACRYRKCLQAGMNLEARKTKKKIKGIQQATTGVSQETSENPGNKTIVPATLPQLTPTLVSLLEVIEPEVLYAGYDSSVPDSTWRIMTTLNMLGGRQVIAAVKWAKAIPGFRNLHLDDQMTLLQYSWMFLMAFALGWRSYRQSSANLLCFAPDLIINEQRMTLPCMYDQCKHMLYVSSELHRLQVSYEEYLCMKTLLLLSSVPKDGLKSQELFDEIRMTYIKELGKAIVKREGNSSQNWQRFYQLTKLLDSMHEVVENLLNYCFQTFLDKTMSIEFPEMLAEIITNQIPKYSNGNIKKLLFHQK

Glucocorticoid receptor [2] = target: T3, Glucocorticoid receptor (Rattus norvegicus, UniProt P06536); assay: Inhibition of [3H]dexamethasone binding to rat glucocorticoid receptor
T3 sequence (P06536 whole entry): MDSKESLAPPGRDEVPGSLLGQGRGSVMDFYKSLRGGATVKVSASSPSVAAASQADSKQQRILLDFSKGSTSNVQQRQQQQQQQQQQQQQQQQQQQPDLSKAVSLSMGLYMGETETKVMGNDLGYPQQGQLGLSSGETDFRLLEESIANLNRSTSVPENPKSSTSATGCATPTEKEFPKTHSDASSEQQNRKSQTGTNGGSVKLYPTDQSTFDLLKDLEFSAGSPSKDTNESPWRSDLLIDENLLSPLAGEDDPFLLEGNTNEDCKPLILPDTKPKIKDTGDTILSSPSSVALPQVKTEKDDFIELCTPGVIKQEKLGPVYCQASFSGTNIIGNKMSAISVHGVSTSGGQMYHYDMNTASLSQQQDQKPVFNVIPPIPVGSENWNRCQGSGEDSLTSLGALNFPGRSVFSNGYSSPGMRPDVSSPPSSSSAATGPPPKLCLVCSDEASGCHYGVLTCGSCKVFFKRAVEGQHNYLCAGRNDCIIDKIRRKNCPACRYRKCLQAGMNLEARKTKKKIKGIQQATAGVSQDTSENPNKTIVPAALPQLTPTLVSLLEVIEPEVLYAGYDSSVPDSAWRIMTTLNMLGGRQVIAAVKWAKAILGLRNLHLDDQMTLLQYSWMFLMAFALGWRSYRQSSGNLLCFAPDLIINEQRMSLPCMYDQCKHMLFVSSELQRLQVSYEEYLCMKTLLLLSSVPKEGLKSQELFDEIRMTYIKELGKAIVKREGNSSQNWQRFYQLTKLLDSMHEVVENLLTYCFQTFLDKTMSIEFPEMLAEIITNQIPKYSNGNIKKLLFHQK

[3] = Compound level in plasma in SD rats after 1 hr of 5 mg/kg i.v. dose; type: ADME, organism-based; design: dose 5 mg/kg, route intravenous; conditions: Sprague-Dawley, rat, iv, read-out: Level
[4] = Compound level in liver in ob/ob mice after 13 days of 100 mpk oral dose of compound; type: ADME; conditions: mouse, 100 mg/kg, read-out: Level
[5] = Compound level in plasma in ob/ob mice after 13 days of 100 mpk oral dose of compound; type: ADME; conditions: mouse, 100 mg/kg, read-out: Level
[6] = Half life period of the compound in rat hepatocytes was determined; type: ADME, cell-based, Liver, Hepatocyte
[7] = Compound level in liver in SD rats after 7 hr of 5 mg/kg i.v. dose; type: ADME, organism-based; design: dose 5 mg/kg, route intravenous; conditions: Sprague-Dawley, rat, iv, read-out: Level
[8] = Insulin levels in ob/ob mice after 13 days of oral dose at 10 mpk b.i.d.; type: ADME; conditions: mouse, in vivo, 10 mg/kg, 312 h
[9] = Compound level in liver in SD rats after 1 hr of 5 mg/kg i.v. dose; type: ADME, organism-based; design: dose 5 mg/kg, route intravenous; conditions: Sprague-Dawley, rat, iv, read-out: Level
[10] = Half life period of the compound in rat liver microsomes was determined; type: ADME, Microsome
[11] = Half life period of the compound in human liver microsomes was determined; type: ADME, Microsome
[12] = Half life period of the compound in human hepatocytes was determined; type: ADME, cell-based, Liver, Hepatocyte
[13] = Compound level in plasma in SD rats after 7 hr of 5 mg/kg i.v. dose; type: ADME, organism-based; design: dose 5 mg/kg, route intravenous; conditions: Sprague-Dawley, rat, iv, read-out: Level
[14] = Plasma protein binding of tritium labeled compound in rat plasma was determined; type: ADME, cell-free; conditions: read-out: Protein binding

**Q.** With `Cc1c(NS(C)(=O)=O)cccc1N(Cc1ccc(Oc2ccc(Cl)c(OCC(=O)O)c2)cc1)Cc1ccc(F)cc1F` as the compound, how does the pIC50 (Progesterone receptor) read?
**A.** The pIC50 was 6.82.

**Q.** And the pIC50 (Glucocorticoid receptor [1])?
**A.** The pIC50 was 6.30.

**Q.** And the pIC50 (Glucocorticoid receptor [2])?
**A.** Its pIC50 is 8.72.

**Q.** For `Cc1c(NS(C)(=O)=O)cccc1N(Cc1ccccc1)Cc1ccc(Oc2ccc(OCC(=O)O)cc2)cc1`, which concentration at 1 h [3] is on record?
**A.** Its concentration at 1 h is 0.03 µg/mL.

**Q.** What about the concentration at 312 h [4] of the same compound?
**A.** The concentration at 312 h was 207000 ng/g.

**Q.** And the pIC50 (Progesterone receptor)?
**A.** The pIC50 was 5.77.

**Q.** And the concentration at 312 h [5]?
**A.** Its concentration at 312 h is 1.6 µg/mL.

**Q.** What about the half-life [6] of the same compound?
**A.** The half-life was 9.9 h.

**Q.** And the concentration at 7 h [7]?
**A.** The concentration at 7 h was 3800 ng/g.

**Q.** And the Level [8]?
**A.** The Level was 0.02 µg/mL.

**Q.** And the concentration at 1 h [9]?
**A.** Its concentration at 1 h is 20000 ng/g.

**Q.** What about the half-life [10] of the same compound?
**A.** Its half-life is 4.6 h.

**Q.** And the half-life [11]?
**A.** Its half-life is 8.9 h.

**Q.** What about the pIC50 (Glucocorticoid receptor [2]) of the same compound?
**A.** Its pIC50 is 8.68.

**Q.** And the half-life [12]?
**A.** Its half-life is 31.1 h.

**Q.** What about the concentration at 7 h [13] of the same compound?
**A.** The concentration at 7 h was 0.01 µg/mL.

**Q.** What does the source list for `Cc1c(NS(C)(=O)=O)cccc1N(Cc1ccccc1)Cc1ccc(Oc2cccc(OCCCC(=O)NCCCC(=O)O)c2)cc1`?
**A.** pIC50 (Progesterone receptor): 6.26; pIC50 (Glucocorticoid receptor [2]): 9.00

**Q.** With `CC#C[C@]1(O)CC[C@H]2[C@@H]3CCC4=CC(=O)CC[C@]4(Cc4ccc(C)cc4)C3=CC[C@@]21C` as the compound, how does the pIC50 (Progesterone receptor) read?
**A.** The pIC50 was 5.62.

**Q.** And the pIC50 (Glucocorticoid receptor [1])?
**A.** The pIC50 was 7.37.

**Q.** What about the half-life [6] of the same compound?
**A.** Its half-life is under 0.2 h.

**Q.** What about the half-life [10] of the same compound?
**A.** Its half-life is 0.33 h.

**Q.** What about the pIC50 (Glucocorticoid receptor [2]) of the same compound?
**A.** The pIC50 was 8.62.

**Q.** For `Cc1c(NS(C)(=O)=O)cccc1N(Cc1ccc(Oc2ccc(F)c(OCC(=O)O)c2)cc1)Cc1ccc(F)cc1F`, which fraction unbound [14] is on record?
**A.** The fraction unbound was 0.001.

**Q.** What about the concentration at 1 h [3] of the same compound?
**A.** The concentration at 1 h was 1.6 µg/mL.

**Q.** What about the concentration at 312 h [4] of the same compound?
**A.** Its concentration at 312 h is 157000 ng/g.

**Q.** What about the pIC50 (Progesterone receptor) of the same compound?
**A.** The pIC50 was 6.74.

**Q.** What about the pIC50 (Glucocorticoid receptor [1]) of the same compound?
**A.** The pIC50 was 6.36.

**Q.** And the half-life [6]?
**A.** Its half-life is 6.5 h.

**Q.** What about the concentration at 7 h [7] of the same compound?
**A.** Its concentration at 7 h is 40000 ng/g.

**Q.** And the concentration at 1 h [9]?
**A.** The concentration at 1 h was 74000 ng/g.

**Q.** And the half-life [10]?
**A.** Its half-life is 4.1 h.

**Q.** What about the half-life [11] of the same compound?
**A.** The half-life was 2.3 h.

**Q.** And the pIC50 (Glucocorticoid receptor [2])?
**A.** Its pIC50 is 9.70.

**Q.** What about the half-life [12] of the same compound?
**A.** The half-life was 9.1 h.

**Q.** And the concentration at 7 h [13]?
**A.** Its concentration at 7 h is 0.65 µg/mL.
